Experimental data reported in paper PMC10042540, “Targeting oncogenic KRasG13C with nucleotide-based covalent inhibitors” (eLife, 2023).

Experiments:
KRas = molecular target: KRas; design: method as in Jeganathan et al., 2018; settings: reversible affinity; ref Jeganathan et al., 2018; cited from earlier work
tAkt1 = test: Electroporation into HeLa cells, western blot quantification; type: cell-based, human; settings: for tAkt mean fold change: mean of cell lysates
Experimental: (§1) HeLa cells were obtained from the American Type Culture Collection (ATCC) and were cultured in DMEM medium (Gibco) supplemented with 10% fetal bovine serum (FBS) (PAN-Biotech) and 1% penicillin/streptomycin (Gibco). Cells were cultured in a humidified incubator at 37 °C in the presence of 5% CO2. The identity of the cells was validated by STR profiling and the cells were tested negative for mycoplasma contamination.
(§2) Electroporation of full-length KRas constructs (KRasWT, KRasG13C, KRasG13C-edaGDP, KRasG13C:acetyledaGDP and KRasG13C-edaGppCp) was performed based on the protocol described by [Alex et al., 2019] using the Neon Transfection System Kit (Thermo Fisher). For electroporation, 3 million cells per experiment were harvested by trypsinization, washed with PBS, and resuspended in 85 µL of the electroporation buffer R (Thermo Fisher). Increasing amounts of recombinant protein samples for each construct (0, 50, 100, 200 and 300 µg) were diluted 1:1 in buffer R followed by the addition of 30 µL of this protein master mix to the cell suspension. This cellular slurry was loaded into a […] Neon Pipette Tip (Thermo Fisher) and electroporated with 2x35 ms pulses at 1000 V. After electroporation, the cells were washed twice with PBS (15 mL) to remove non-internalized extracellular protein and the cell pellet was resuspended in 2 mL complete growth media. Cells were transferred into six-well tissue culture plates (Sarstedt) and incubated for 24 hr at 37 °C and 5% CO2 in a humidified incubator for recovery before being processed for western blotting analysis.
(§3) After recovery of the electroporation, cells were washed twice with ice-cold PBS and lysed in 100 µL of phosphatase and protease inhibitor containing RIPA buffer (Cell Signaling Technology). Cells were incubated on ice for 30 min and then harvested by scraping followed by centrifugation at 14,000 rpm for 10 min at 4 °C. Protein concentrations were determined using the Pierce BCA protein assay (Thermo) following the manufacturer’s recommended procedure. Equal amounts of protein (10 µg) were analyzed by SDS-PAGE and transferred to Immobilon-FL PVDF membranes (Merck Millipore) using Pierce 1-step transfer buffer (Thermo) and the Pierce Power Blotter (Thermo). Membranes were washed with ddH2O for 5 min, blocked with OdysseyBlocking Buffer TBS (Li-Cor) for 1 hr at room temperature and then incubated with primary antibodies diluted in OdysseyBlocking Buffer TBS overnight at 4 °C with gentle agitation. KRas (Sigma Aldrich, SAB1404011-100UG), pcRafS338 (CST, 9427), tAkt1 (CST, 2938), pAktS473 (CST, 4060), tErk (CST, 4696), pErkT202/Y204 (CST, 4370), pS6S235/236 (CST, 4858), and β-actin (CST, 4970/Sigma-Aldrich, A5441) antibodies were used to detect the individual proteins. After primary antibody incubation, membranes were washed three times with TBS-T (50 mM Tris, 150 mM NaCl, 0.05% Tween 20, pH 7.4) for 5 min before being incubated with secondary antibodies (anti-mouse IgG (H+L) (DyLight 680 Conjugate) (CST, 5470) / anti-rabbit IgG (H+L) (DyLight 800 4 X PEG Conjugate) (CST, 5151)) diluted in OdysseyBlocking Buffer TBS for 1 hr at room temperature with gentle agitation. After secondary antibody incubation, the membranes were washed three times for 5 min with TBS-T and then scanned using an OdysseyCLx imaging system (Li-Cor). Quantification of protein levels from western blots was performed using Empiria Studio (Li-Cor) (Figure 3B, C, Figure 3—figure supplements 6–9).

pcRafS338 = test: as above; type: cell-based, human; settings: for pcRaf mean fold change: mean of cell lysates
Experimental: as §1, §2, §3

tErk = test: as above; type: cell-based, human; settings: for tErk mean fold change: mean of cell lysates
Experimental: as §1, §2, §3

pAktS473 = test: as above; type: cell-based, human; settings: for pAkt mean fold change: mean of cell lysates
Experimental: as §1, §2, §3

pErkT202/Y204 = test: as above; type: cell-based, human; settings: for pErk mean fold change: mean of cell lysates
Experimental: as §1, §2, §3

pS6S235/236 = test: as above; type: cell-based, human; settings: for pS6 mean fold change: mean of cell lysates
Experimental: as §1, §2, §3

SOS = test: Guanine nucleotide-exchange factor assay (mantdGDP fluorescence); type: biochemical
Experimental: SOS-catalysed nucleotide exchange was monitored at 25 °C in a FluoroMax-3 spectrofluorometer (excitation at 360 nm, emission at 440 nm) in 20 mM HEPES (pH 7.5), 100 mM NaCl, 2 mM MgCl2, and 1 mM TCEP. 5 µM KRas1-169 was mixed with 10 µM mantdGDP and subsequently with different concentrations of SOS (0.25 µM and 0.5 µM) (Figure 3A; Figure 3—figure supplement 1).

[1] = test system: Ras pathway (pcRaf, pAkt, pErk, pS6); test: Electroporation into HeLa cells, western blot of downstream signalling; type: cell-based, human; settings: electroporation of 50-300 µg protein
Experimental: as §1, §2
After recovery of the electroporation, cells were washed twice with ice-cold PBS and lysed in 100 µL of phosphatase and protease inhibitor containing RIPA buffer (Cell Signaling Technology). Cells were incubated on ice for 30 min and then harvested by scraping followed by centrifugation at 14,000 rpm for 10 min at 4 °C. Protein concentrations were determined using the Pierce BCA protein assay (Thermo) following the manufacturer’s recommended procedure. Equal amounts of protein (10 µg) were analyzed by SDS-PAGE and transferred to Immobilon-FL PVDF membranes (Merck Millipore) using Pierce 1-step transfer buffer (Thermo) and the Pierce Power Blotter (Thermo). Membranes were washed with ddH2O for 5 min, blocked with OdysseyBlocking Buffer TBS (Li-Cor) for 1 hr at room temperature and then incubated with primary antibodies diluted in OdysseyBlocking Buffer TBS overnight at 4 °C with gentle agitation. […] Quantification of protein levels from western blots was performed using Empiria Studio (Li-Cor) (Figure 3B, C, Figure 3—figure supplements 6–9).

## Nc1nc2c(ncn2[C@@H]2O[C@H](COP(=O)(O)OP(=O)(O)OCCNC(=O)CCl)[C@@H](O)[C@H]2O)c(=O)[nH]1 [SML-8-73-1]
KRas
  Kd: ~140 nM

## KRasG13C: recombinant oncogenic KRasG13C mutant protein, GDP-bound
tAkt1; 50 µg, Cell lysate 1
  tAkt fold change: 1.94
tAkt1; 50 µg, Cell lysate 2
  tAkt fold change: 0.93
tAkt1; 50 µg, Cell lysate 3
  tAkt fold change: 1.69
tAkt1; 50 µg
  tAkt mean fold change: 1.52
tAkt1; 100 µg, Cell lysate 1
  tAkt fold change: 2.66
tAkt1; 100 µg, Cell lysate 2
  tAkt fold change: 0.74
tAkt1; 100 µg, Cell lysate 3
  tAkt fold change: 1.08
tAkt1; 100 µg
  tAkt mean fold change: 1.49
tAkt1; 200 µg, Cell lysate 1
  tAkt fold change: 2.05
tAkt1; 200 µg, Cell lysate 2
  tAkt fold change: 1.29
tAkt1; 200 µg, Cell lysate 3
  tAkt fold change: 1.44
tAkt1; 200 µg
  tAkt mean fold change: 1.59
tAkt1; 300 µg, Cell lysate 1
  tAkt fold change: 1.78
tAkt1; 300 µg, Cell lysate 2
  tAkt fold change: 1.44
tAkt1; 300 µg, Cell lysate 3
  tAkt fold change: 1.65
tAkt1; 300 µg
  tAkt mean fold change: 1.62
pcRafS338; 50 µg, Cell lysate 1
  pcRaf fold change: 1.43
pcRafS338; 50 µg, Cell lysate 2
  pcRaf fold change: 2.59
pcRafS338; 50 µg, Cell lysate 3
  pcRaf fold change: 1.91
pcRafS338; 50 µg
  pcRaf mean fold change: 1.98
pcRafS338; 100 µg, Cell lysate 1
  pcRaf fold change: 1.55
pcRafS338; 100 µg, Cell lysate 2
  pcRaf fold change: 4.23
pcRafS338; 100 µg, Cell lysate 3
  pcRaf fold change: 1.55
pcRafS338; 100 µg
  pcRaf mean fold change: 2.44
pcRafS338; 200 µg, Cell lysate 1
  pcRaf fold change: 1.46
pcRafS338; 200 µg, Cell lysate 2
  pcRaf fold change: 6.14
pcRafS338; 200 µg, Cell lysate 3
  pcRaf fold change: 1.74
pcRafS338; 200 µg
  pcRaf mean fold change: 3.11
pcRafS338; 300 µg, Cell lysate 1
  pcRaf fold change: 1.29
pcRafS338; 300 µg, Cell lysate 2
  pcRaf fold change: 6.29
pcRafS338; 300 µg, Cell lysate 3
  pcRaf fold change: 1.50
pcRafS338; 300 µg
  pcRaf mean fold change: 3.03
tErk; 50 µg, Cell lysate 1
  tErk fold change: 0.88
tErk; 50 µg, Cell lysate 2
  tErk fold change: 1.05
tErk; 50 µg, Cell lysate 3
  tErk fold change: 0.99
tErk; 50 µg
  tErk mean fold change: 0.97
tErk; 100 µg, Cell lysate 1
  tErk fold change: 0.44
tErk; 100 µg, Cell lysate 2
  tErk fold change: 1.04
tErk; 100 µg, Cell lysate 3
  tErk fold change: 1.00
tErk; 100 µg
  tErk mean fold change: 0.83
tErk; 200 µg, Cell lysate 1
  tErk fold change: 0.50
tErk; 200 µg, Cell lysate 2
  tErk fold change: 1.05
tErk; 200 µg, Cell lysate 3
  tErk fold change: 0.89
tErk; 200 µg
  tErk mean fold change: 0.81
tErk; 300 µg, Cell lysate 1
  tErk fold change: 0.97
tErk; 300 µg, Cell lysate 2
  tErk fold change: 1.08
tErk; 300 µg, Cell lysate 3
  tErk fold change: 0.89
tErk; 300 µg
  tErk mean fold change: 0.98
pAktS473; 50 µg, Cell lysate 1
  pAkt fold change: 1.68
pAktS473; 50 µg, Cell lysate 2
  pAkt fold change: 1.22
pAktS473; 50 µg, Cell lysate 3
  pAkt fold change: 2.21
pAktS473; 50 µg
  pAkt mean fold change: 1.70
pAktS473; 100 µg, Cell lysate 1
  pAkt fold change: 3.58
pAktS473; 100 µg, Cell lysate 2
  pAkt fold change: 2.56
pAktS473; 100 µg, Cell lysate 3
  pAkt fold change: 1.82
pAktS473; 100 µg
  pAkt mean fold change: 2.65
pAktS473; 200 µg, Cell lysate 1
  pAkt fold change: 4.98
pAktS473; 200 µg, Cell lysate 2
  pAkt fold change: 2.01
pAktS473; 200 µg, Cell lysate 3
  pAkt fold change: 1.89
pAktS473; 200 µg
  pAkt mean fold change: 2.96
pAktS473; 300 µg, Cell lysate 1
  pAkt fold change: 4.64
pAktS473; 300 µg, Cell lysate 2
  pAkt fold change: 3.64
pAktS473; 300 µg, Cell lysate 3
  pAkt fold change: 1.72
pAktS473; 300 µg
  pAkt mean fold change: 3.33
pErkT202/Y204; 50 µg, Cell lysate 1
  pErk fold change: 5.54
pErkT202/Y204; 50 µg, Cell lysate 2
  pErk fold change: 1.80
pErkT202/Y204; 50 µg, Cell lysate 3
  pErk fold change: 3.53
pErkT202/Y204; 50 µg
  pErk mean fold change: 3.62
pErkT202/Y204; 100 µg, Cell lysate 1
  pErk fold change: 6.18
pErkT202/Y204; 100 µg, Cell lysate 2
  pErk fold change: 2.89
pErkT202/Y204; 100 µg, Cell lysate 3
  pErk fold change: 3.58
pErkT202/Y204; 100 µg
  pErk mean fold change: 4.22
pErkT202/Y204; 200 µg, Cell lysate 1
  pErk fold change: 6.87
pErkT202/Y204; 200 µg, Cell lysate 2
  pErk fold change: 3.48
pErkT202/Y204; 200 µg, Cell lysate 3
  pErk fold change: 4.30
pErkT202/Y204; 200 µg
  pErk mean fold change: 4.88
pErkT202/Y204; 300 µg, Cell lysate 1
  pErk fold change: 9.07
pErkT202/Y204; 300 µg, Cell lysate 2
  pErk fold change: 4.08
pErkT202/Y204; 300 µg, Cell lysate 3
  pErk fold change: 5.76
pErkT202/Y204; 300 µg
  pErk mean fold change: 6.30
pS6S235/236; 50 µg, Cell lysate 1
  pS6 fold change: 1.14
pS6S235/236; 50 µg, Cell lysate 2
  pS6 fold change: 1.57
pS6S235/236; 50 µg, Cell lysate 3
  pS6 fold change: 1.40
pS6S235/236; 50 µg
  pS6 mean fold change: 1.37
pS6S235/236; 100 µg, Cell lysate 1
  pS6 fold change: 0.95
pS6S235/236; 100 µg, Cell lysate 2
  pS6 fold change: 1.80
pS6S235/236; 100 µg, Cell lysate 3
  pS6 fold change: 1.21
pS6S235/236; 100 µg
  pS6 mean fold change: 1.32
pS6S235/236; 200 µg, Cell lysate 1
  pS6 fold change: 1.17
pS6S235/236; 200 µg, Cell lysate 2
  pS6 fold change: 2.22
pS6S235/236; 200 µg, Cell lysate 3
  pS6 fold change: 1.06
pS6S235/236; 200 µg
  pS6 mean fold change: 1.48
pS6S235/236; 300 µg, Cell lysate 1
  pS6 fold change: 1.44
pS6S235/236; 300 µg, Cell lysate 2
  pS6 fold change: 2.42
pS6S235/236; 300 µg, Cell lysate 3
  pS6 fold change: 1.24
pS6S235/236; 300 µg
  pS6 mean fold change: 1.70
SOS; 5 µM KRas1-169, 10 µM mantdGDP, 0.25 or 0.5 µM SOS
  SOS-catalysed nucleotide exchange: efficiently catalysed nucleotide exchange
SOS; absence of SOS
  intrinsic nucleotide exchange rate: drastically increased
[1]
  downstream signalling (pcRaf, pAkt, pErk, pS6): concentration-dependent activation of the downstream signalling
